Among the data in patent publication US11656384B2, “Composition, film, lens, solid state imaging element, and compounds” (FUJIFILM Corporation, priority 2017, dated 2023) are Solubility values, retold here.

The data set is described as follows: Dissolution test: solubility of the compound in a solvent at 25° C.
[1] abbreviates: solvent PGMEA/PGME (90% by mass/10% by mass).
Setting [2] is: solvent Diethylene glycol monobutyl ether acetate.

Procedure: By the following method, the solubility of the compound represented by General Formula (I) in a solvent was investigated.
Then, solids were removed using a 0.5 μm TEFLON (registered trademark) filter. Thereafter, the obtained filtrate was caused to volatilize for 3 hours at 150° C. in a vacuum, and the content of residues was measured, thereby quantifying the content of solids dissolved in the solvent.

As to `N#Cc1ccc(-c2ccc(Nc3nc(Nc4ccc(-c5ccc(C#N)cc5)cc4)nc(Nc4ccc(-c5ccc(C#N)cc5)cc4)n3)cc2)cc1` [Compound A-8], the Solubility was under 0.5% by mass (solvent Cyclopentanone) and “Less than 0.5% by % by mass” (solvent PGMEA).
For `Clc1ccc(-c2ccc(Nc3nc(Nc4ccc(-c5ccc(Cl)cc5)cc4)nc(Nc4ccc(-c5ccc(Cl)cc5)cc4)n3)cc2)cc1` [Compound A-22], the Solubility entry (solvent PGMEA) is given as “Less than 0.5% by % by mass”.
For the compound `O=C(Nc1ccccc1)c1cc(C(=O)Nc2ccccc2)cc(C(=O)Nc2ccccc2)c1` [Compound A-14], the Solubility reads like this: (solvent Ethyl lactate) under 0.5% by mass; (solvent PGMEA) “Less than 0.5% by % by mass”.
`CN(c1ccccc1)c1nc(Nc2ccccc2)nc(Nc2ccccc2)n1` [Compound A-10]: the Solubility was under 0.5% by mass (solvent Anisole), “Less than 0.5% by % by mass” (solvent PGMEA) and under 0.5% by mass (solvent Propylene glycol diacetate).
In the case of `O=S(=O)(Nc1ccccc1)c1cccc2c(S(=O)(=O)Nc3ccccc3)cccc12` [Compound A-17], the Solubility (solvent Cyclopentanone/PGME (90% by mass/10% by mass)) is on record as under 0.5% by mass.
For `O=S(=O)(Nc1ccccc1)c1cccc2c(S(=O)(=O)Nc3ccccc3)cccc12` [Compound A-15], the Solubility (solvent Cyclohexyl acetate) was under 0.5% by mass, the Solubility result (solvent PGMEA) is given as “Less than 0.5% by % by mass” and the Solubility under setting [1] was under 0.5% by mass.
On to `c1ccc(-c2ccc(-c3ccc(-c4ccc(Nc5nc(Nc6ccc(-c7ccc(-c8ccc(-c9ccccc9)cc8)cc7)cc6)nc(Nc6ccc(-c7ccc(-c8ccc(-c9ccccc9)cc8)cc7)cc6)n5)cc4)cc3)cc2)cc1` [Compound A-21], for which, for the setting “solvent PGMEA”, the Solubility result is given as “Less than 0.5% by % by mass”.
On to `c1ccc(Nc2nc(Nc3ccccc3)nc(Nc3ccc(-c4ccc(-c5ccccc5)cc4)cc3)n2)cc1` [Compound A-19], for which the Solubility result (solvent PGMEA) was “Less than 0.5% by % by mass”.
On the same count and under the same terms, next, `c1ccc(-c2ccc(-c3ccc(Nc4nc(Nc5ccc(-c6ccc(-c7ccccc7)cc6)cc5)nc(Nc5nc6ccccc6s5)n4)cc3)cc2)cc1` [Compound A-20]: “Less than 0.5% by % by mass”.
Turning to `c1ccc(Nc2nc(Nc3ccccc3)nc(Oc3ccccc3)n2)cc1` [Compound A-11], the Solubility was under 0.5% by mass (solvent Dipropylene glycol dimethyl ether) and “Less than 0.5% by % by mass” (solvent PGMEA).
`Brc1ccc(Nc2nc(Nc3ccc(Br)cc3)nc(Nc3ccc(Br)cc3)n2)cc1` [Compound A-5]: the Solubility reads like this: (solvent 3-methoxybutyl acetate) under 0.5% by mass; (solvent PGMEA) “Less than 0.5% by % by mass”.
On to `CC(=O)Nc1ccc(Nc2nc(Nc3ccc(NC(C)=O)cc3)nc(Nc3ccc(NC(C)=O)cc3)n2)cc1` [Compound A-3], for which the Solubility (solvent Cyclohexanone) is under 0.5% by mass, the Solubility (solvent PGME) is given as under 0.5% by mass and the Solubility entry (solvent PGMEA) is “Less than 0.5% by % by mass”.
`O=[N+]([O-])c1ccc(Nc2nc(Nc3ccc([N+](=O)[O-])cc3)nc(Nc3ccc([N+](=O)[O-])cc3)n2)cc1` [Compound A-6]: the Solubility runs as follows: (solvent Cyclohexyl acetate) under 0.5% by mass; (solvent PGMEA) “Less than 0.5% by % by mass”.
In the case of `N#Cc1ccc(Nc2nc(Nc3ccc(C#N)cc3)nc(Nc3ccc(C#N)cc3)n2)cc1` [Compound A-2], the Solubility is under 0.5% by mass (solvent Cyclohexyl methyl ether) and “Less than 0.5% by % by mass” (solvent PGMEA).
Regarding `c1ccc2cc(Nc3nc(Nc4ccc5ccccc5c4)nc(Nc4ccc5ccccc5c4)n3)ccc2c1` [Compound A-4], the Solubility is under 0.5% by mass (solvent Butyl acetate), under 0.5% by mass (solvent PGME) and “Less than 0.5% by % by mass” (solvent PGMEA).
For the compound `N#Cc1ccc(-c2ccc(Nc3nc(Nc4ccc(-c5ccc(C#N)cc5)cc4)nc(Oc4ccccc4)n3)cc2)cc1` [Compound A-24], where the note is “solvent PGMEA”, the Solubility result is reported as “Less than 0.5% by % by mass”.
As to `c1ccc(Nc2nc(Nc3ccccc3)nc(Sc3ccccc3)n2)cc1` [Compound A-12], the Solubility runs as follows: (solvent 3-methoxybutyl acetate) under 0.5% by mass; under setting [2], under 0.5% by mass; (solvent PGMEA) “Less than 0.5% by % by mass”.
On to `O=S(=O)(Nc1ccccc1)c1cccc2c(S(=O)(=O)Nc3ccccc3)cccc12` [Compound A-16], for which the Solubility was under 0.5% by mass (solvent 3-methoxybutyl acetate) and under 0.5% by mass (solvent PGMEA/PGME (80% by mass/20% by mass)).
Turning to `CSc1ccc(Nc2nc(Nc3ccc(SC)cc3)nc(Nc3ccc(SC)cc3)n2)cc1` [Compound A-9], the Solubility by setting is: (solvent Cyclobutyl ether) under 0.5% by mass; under setting [2], under 0.5% by mass; (solvent PGMEA) “Less than 0.5% by % by mass”.
Take `c1ccc(Nc2nc(Nc3ccccc3)nc(Nc3ccccc3)n2)cc1` [Compound A-1]: the Solubility (solvent Toluene) is listed as under 0.5% by mass.
In the case of `CN(c1ccccc1)c1nc(Nc2ccc(-c3ccc(-c4ccccc4)cc3)cc2)nc(Nc2ccc(-c3ccc(-c4ccccc4)cc3)cc2)n1` [Compound A-23], the Solubility entry (solvent PGMEA) is “Less than 0.5% by % by mass”.
Consider `c1ccc(-c2ccc(-c3ccc(Nc4nc(Nc5ccc(-c6ccc(-c7ccccc7)cc6)cc5)nc(Nc5ccc(-c6ccc(-c7ccccc7)cc6)cc5)n4)cc3)cc2)cc1` [Compound A-7], for which the Solubility entry by setting is: (solvent PGMEA) “Less than 0.5% by % by mass”; (solvent PGMEA/PGME (70% by mass/30% by mass)) under 0.5% by mass; under setting [1], under 0.5% by mass.
